# Assay results reported in the supplement of paper PMC11208160.
# Assay: recombinant barcode read abundance after kanamycin selection (control-corrected) (log10(CPM+1)); higher = more efficient recombination; sequences stand for … in AGTGCAGAGAAAATCGGCCAGTTTTCTCTGCCTGCAGTCCGCATGCCGT…ATTTATGCAGCGGACTGCCTTTCTCCCAAAGTGATAAACCGGACAGTATCATGGACCGGTTTTCCCGGTAATCCGTATTTGCAAGGTTGGTTTCACT; site = the 11-nt target
# Experimental: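 Same pooled E. coli target screen (IS621 bridge recombinase, kanamycin selection, control-corrected CPM, mean of 2 biological replicates). Here the two core-binding nucleotides of the LTG and RTG of the bridge RNA target-binding loop are mutated. Target and donor CT cores are held constant, and the other 9 guide positions match the target. The target is read from the library oligo sequence. Molecule = full bridge RNA written as DNA: nt 1-80 from the library oligo, rest WT scaffold.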
row,Sequence,recombinant barcode read abundance (log10)
1,"AAACACAAATGGGTTCTAACCTGTTGCCTAG [AAACACACTAG_LTGcore_AA_RTGcore_CT] (site AAACACACTAG) (LTG core: AA, RTG core: CT)",0.0621
2,"AAACACAATTGGGTTCTAACCTGTTGCCTAG [AAACACACTAG_LTGcore_AT_RTGcore_CT] (site AAACACACTAG) (LTG core: AT, RTG core: CT)",0.375
3,"AAACACACCTGGGTTCTAACCTGTTGCCTAG [AAACACACTAG_LTGcore_CC_RTGcore_CT] (site AAACACACTAG) (LTG core: CC, RTG core: CT)",0.633
4,"AAACACACGTGGGTTCTAACCTGTTGCCTCG [AAACACACTAG_LTGcore_CG_RTGcore_CG] (site AAACACACTAG) (LTG core: CG, RTG core: CG)",0.296
5,"AAACACACTTGGGTTCTAACCTGTTGCCTAT [AAACACACTAG_LTGcore_CT_RTGcore_AT] (site AAACACACTAG) (LTG core: CT, RTG core: AT)",0.39
6,"AAACACATATGGGTTCTAACCTGTTGCCTAG [AAACACACTAG_LTGcore_TA_RTGcore_CT] (site AAACACACTAG) (LTG core: TA, RTG core: CT)",0.104
7,"AAACACATATGGGTTCTAACCTGTTGCCTTA [AAACACACTAG_LTGcore_TA_RTGcore_TA] (site AAACACACTAG) (LTG core: TA, RTG core: TA)",0.146
8,"AAACAGTACTGGGTTCTAACCTGTTGCCTGT [AAACAGTCTAG_LTGcore_AC_RTGcore_AC] (site AAACAGTCTAG) (LTG core: AC, RTG core: AC)",0.114
9,"AAACAGTAGTGGGTTCTAACCTGTTGCCTAG [AAACAGTCTAG_LTGcore_AG_RTGcore_CT] (site AAACAGTCTAG) (LTG core: AG, RTG core: CT)",0.0711
10,"AAACAGTCTTGGGTTCTAACCTGTTGCCTCA [AAACAGTCTAG_LTGcore_CT_RTGcore_TG] (site AAACAGTCTAG) (LTG core: CT, RTG core: TG)",0.601
11,"AAACAGTCTTGGGTTCTAACCTGTTGCCTGC [AAACAGTCTAG_LTGcore_CT_RTGcore_GC] (site AAACAGTCTAG) (LTG core: CT, RTG core: GC)",1.44
12,"AAACAGTCTTGGGTTCTAACCTGTTGCCTTG [AAACAGTCTAG_LTGcore_CT_RTGcore_CA] (site AAACAGTCTAG) (LTG core: CT, RTG core: CA)",1.28
13,"AAACAGTTCTGGGTTCTAACCTGTTGCCTAG [AAACAGTCTAG_LTGcore_TC_RTGcore_CT] (site AAACAGTCTAG) (LTG core: TC, RTG core: CT)",0.0714
14,"AAACATGCGTGGGTTCTAACCTGTTGCCTAG [AAACATGCTAG_LTGcore_CG_RTGcore_CT] (site AAACATGCTAG) (LTG core: CG, RTG core: CT)",0.0702
15,"AAACATGCTTGGGTTCTAACCTGTTGCCTAA [AAACATGCTAG_LTGcore_CT_RTGcore_TT] (site AAACATGCTAG) (LTG core: CT, RTG core: TT)",0.344
16,"AAACATGCTTGGGTTCTAACCTGTTGCCTCC [AAACATGCTAG_LTGcore_CT_RTGcore_GG] (site AAACATGCTAG) (LTG core: CT, RTG core: GG)",0.177
17,"AAACATGCTTGGGTTCTAACCTGTTGCCTGG [AAACATGCTAG_LTGcore_CT_RTGcore_CC] (site AAACATGCTAG) (LTG core: CT, RTG core: CC)",0.713
18,"AAACATGGATGGGTTCTAACCTGTTGCCTAG [AAACATGCTAG_LTGcore_GA_RTGcore_CT] (site AAACATGCTAG) (LTG core: GA, RTG core: CT)",0.0906
19,"AAACATGTATGGGTTCTAACCTGTTGCCTTA [AAACATGCTAG_LTGcore_TA_RTGcore_TA] (site AAACATGCTAG) (LTG core: TA, RTG core: TA)",0.0913
20,"ACGGGACATTGGGTTCTAACCTGTTGCAGAT [ACGGGACCTCT_LTGcore_AT_RTGcore_AT] (site ACGGGACCTCT) (LTG core: AT, RTG core: AT)",0.134
21,"ACGGGACCGTGGGTTCTAACCTGTTGCAGCG [ACGGGACCTCT_LTGcore_CG_RTGcore_CG] (site ACGGGACCTCT) (LTG core: CG, RTG core: CG)",0.086
22,"ACGGGACCTTGGGTTCTAACCTGTTGCAGAA [ACGGGACCTCT_LTGcore_CT_RTGcore_TT] (site ACGGGACCTCT) (LTG core: CT, RTG core: TT)",0.387
23,"ACGGGACCTTGGGTTCTAACCTGTTGCAGCT [ACGGGACCTCT_LTGcore_CT_RTGcore_AG] (site ACGGGACCTCT) (LTG core: CT, RTG core: AG)",1.07
24,"ACGGGACCTTGGGTTCTAACCTGTTGCAGGC [ACGGGACCTCT_LTGcore_CT_RTGcore_GC] (site ACGGGACCTCT) (LTG core: CT, RTG core: GC)",0.944

# Assay: recombinant barcode read abundance after kanamycin selection (control-corrected) (log10(CPM+1)); higher = more efficient recombination; sequences stand for … in AGTGCAGAGAAAATCGGCCAGTTTTCTCTGCCTGCAGTCCGCATGCCGT…AGATTTATGCAGCGGACTGCCTTTCTCCCAAAGTGATAAACCGGACAGTATCATGGACCGGTTTTCCCGGTAATCCGTATTTGCAAGGTTGGTTTCACT; site = the 11-nt target
# In short: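 Targets and IS621 bridge RNA target-binding loops were paired in oligos, each with a promoter, a barcode and the J23119-driven first 104 bridge RNA bases. A vector carrying the remaining 73 bp and a T7-inducible recombinase received these by Gibson cloning, and the pool was co-electroporated into E. coli with a donor plasmid. Duplicate plates contained chloramphenicol/ampicillin LB agar (control) or chloramphenicol/ampicillin/kanamycin with 0.1 mM IPTG. Recombination efficiency comes from averaged, control-corrected counts per million of recombinant-junction barcodes, reported as log10(CPM+1).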
row,Sequence,recombinant barcode read abundance (log10)
1,TTGCTAACTTGGGTTCTAACCTGTTGCCT (site TTGCAAACTAG),0.0817
2,TTGCTAACTTGGGTTCTAACCTGTTGCCT (site TTGCCAACTAG),0.0109
3,TTGCTAACTTGGGTTCTAACCTGTTGCCT (site TTGCGAACTAG),0.0431
4,TTGCTAACTTGGGTTCTAACCTGTTGCCT (site TTGCTAACTAG),0.802
5,TTGGATACTTGGGTTCTAACCTGTTGCCA (site CATCTACCTCC),0.103
6,TTGGATACTTGGGTTCTAACCTGTTGCCA (site TTGGATACTTG),1.04
7,TTGGCCACTTGGGTTCTAACCTGTTGCCT (site TTGGACACTAG),0.0972
8,TTGGCCACTTGGGTTCTAACCTGTTGCCT (site TTGGCCACTAG),1.08
9,TTGGCCACTTGGGTTCTAACCTGTTGCCT (site TTGGGCACTAG),0.121
10,TTGGCCACTTGGGTTCTAACCTGTTGCCT (site TTGGTCACTAG),0.0232
11,TTGGCCGCTTGGGTTCTAACCTGTTGCCT (site TTGGACGCTAG),0.109
12,TTGGCCGCTTGGGTTCTAACCTGTTGCCT (site TTGGCCGCTAG),1.65
13,TTGGCCGCTTGGGTTCTAACCTGTTGCCT (site TTGGGCGCTAG),0.374
14,TTGGCCGCTTGGGTTCTAACCTGTTGCCT (site TTGGTCGCTAG),0.148
15,TTGGGGTCTTGGGTTCTAACCTGTTGCCT (site GTAGGGTCTAG),0.155
16,TTGGGGTCTTGGGTTCTAACCTGTTGCCT (site TTGGGGTCTAG),1.65
17,TTGGGTCCTTGGGTTCTAACCTGTTGCGT (site TTGAGTCCTAG),0.15
18,TTGGGTCCTTGGGTTCTAACCTGTTGCGT (site TTGGGTCCTAC),3.32
19,TTGGTCACTTGGGTTCTAACCTGTTGCCA (site GGAAGGCCTAA),0.0841
20,TTGGTCACTTGGGTTCTAACCTGTTGCCA (site TTGGTCACTTG),0.525
21,TTGGTCCCTTGGGTTCTAACCTGTTGCCT (site TTGGTACCTAG),0.565
22,TTGGTCCCTTGGGTTCTAACCTGTTGCCT (site TTGGTCCCTAG),2.93
23,TTGGTCCCTTGGGTTCTAACCTGTTGCCT (site TTGGTGCCTAG),0.0514
24,TTGGTCCCTTGGGTTCTAACCTGTTGCCT (site TTGGTTCCTAG),0.131
25,TTGTATACTTGGGTTCTAACCTGTTGCCT (site GTGTCTACTAG),0.129
26,TTGTATACTTGGGTTCTAACCTGTTGCCT (site TTGTATACTAG),0.612
27,TTGTGAGCTTGGGTTCTAACCTGTTGCGG (site TTGTAAGCTCG),0.037
28,TTGTGAGCTTGGGTTCTAACCTGTTGCGG (site TTGTGAGCTCC),1.15
